According to US20220387412A1, “Novel Superebastine Against Therapy Resistant Prostate Cancer” (University of Kentucky Research Foundation, priority 2019, published 2022):
Entries after “also recorded” stand apart in the source; their conditions may differ.

Tests used:
Type in all cases: cell-based
prostate cancer cells = assay: Growth inhibition / cell death of prostate cancer cell cultures; conditions: for cell death: within 24 h
Excerpt: RAGE activation promotes proliferation, invasive bone homing, and metastasis of PCa cells.

[1] = test system: CwR22Rv1 Par-4 knock-down cells; assay: γH2AX ICC / Western blot in Par-4 wild type and knock-down cells; conditions: CwR22Rv1, 0.25 μM, 24 h
Method: FIGS. 8A-B show images illustrating that DNA damage induced by Super-EBS is mediated by Par-4. (A) CwR22Rv1 Par-4 wild type and knock-down cells were treated with Super-EBS (0.25 μM) for 24 h in medium containing 10% FBS, and then subjected to ICC for Par-4 (green) or YH2AX (Ser139) (red). (B) Western blot analysis for YH2AX, Par-4 and GAPDH was performed on lysates of Par-4 wild type (left) and knock-down (right) prostate cancer cells treated with Super-EBS (0.25 μM) for 24 h.
DNA damage induced by Super-EBS is mediated by Par-4.

[2] = test system: CWR22Rv1 ENZ-sensitive cells; assay: ICC for active caspase 3 (apoptosis), CWR22Rv1 ENZ-sensitive; conditions: 0.1-5 μM, 24 hours
Method: (§1) FIGS. 5A-B show images and graphs illustrating that Super-EBS causes cell death by the activation of an apoptotic cascade. (A) AR-v7 expressing CwR22Rv1 and CwR22Rv1 Enz(R) cells were treated with Super-EBS (0.1-5 μM) in 10% FBS for 24 h and tested by ICC analysis for cleaved caspase 3 (green) and DAPI (blue). (B) Quantitative representation of ICC data. *P<0.05; **P<0.01 by Student's t test.
(§2) After determining that the cells were sensitive to Super-EBS, they were tested to determine whether Super-EBS inhibited cell viability by inducing apoptosis. CWR22Rv1 ENZ-sensitive and CWR22Rv1 ENZ-resistant cell lines were treated with vehicle, 0.1-, 0.5-, 1- and 5-μM of Super-EBS for 24 hours. The cells were then subjected to immunocytochemical (ICC) analysis for active caspase 3 (green fluorescence) to detect apoptotic cells, and 4, 6-diamidino-2-phenylindole (DAPI) staining (blue fluorescence) to reveal the cell nucleus. Cells were scored for apoptosis under a confocal microscope and percent apoptosis was calculated. […] Mean+SD are shown. P<0.01 by Student's t-test.
(§3) Super-EBS causes cell death by the activation of an apoptotic cascade. […] CwR22Rv1 Enz(R) cells were also tested with Super-EBS for 24 h and subjected to FACS analysis using Annexin V and propidium iodide (PI) staining.

[3] = test system: CWR22Rv1 ENZ-resistant cells; assay: Resazurin cell viability assay, CWR22Rv1 ENZ-resistant; conditions: CWR22Rv1 ENZ-resistant, 24, 48 and 72 hours
Method: (§4) Mean+SD shown. (*) Asterisk indicates […] by the Student's t-test.
(§5) Cell viability was then measured by resazurin assays. […] On the other hand, Super-EBS (10 μM) was effective in 24 hours. […] Mean+SD are shown. P<0.01 by Student's t-test.

PC-3 cells = assay: Resazurin cell viability assay, PC-3; conditions: for cell viability (resazurin): PC-3, 10 μM
Method: as §4, §5

[4] = test system: CWR22Rv1 ENZ-sensitive cells; assay: Resazurin cell viability assay, CWR22Rv1 ENZ-sensitive; conditions: CWR22Rv1 ENZ-sensitive, 24, 48 and 72 hours
Method: as §4, §5

C4-2 cells = assay: Western blot for γH2AX (Ser139), DNA double stranded breaks, C4-2; conditions: C4-2, 0.5 or 1 μM, 24 h
Method: (§6) FIGS. 7A-B show images illustrating that Super-EBS induces DNA damage in AR-positive prostate cancer cells. (A) C4-2 cells were treated with Super-EBS (0.5 or 1 μM) for 24 h in 10% FBS containing medium. […] Lysates were probed for YH2AX (Ser139 phosphorylation), a marker for DSB by Western blot analysis.
(§7) Super-EBS induces DNA damage in AR-positive prostate cancer cells. Lysates from AR-positive androgen-independent C4-2 cells (FIG. 7A) or androgen-dependent LNCaP cells (FIG. 7B) were treated with Super-EBS and subjected to Western blot analysis for γH2AX (Ser 139) positivity to detect DNA double stranded breaks (DSB). Super-EBS induced DSBs in both C4-2 and LNCaP cells (FIGS. 7A-B).

[5] = test system: C4-2, C4-2R, LNCaP and M49C cells; assay: Resazurin cell viability assay, AR-positive cells and drug resistant counterparts; conditions: 24 h, 10% FBS
Method: FIGS. 4A-B show graphs illustrating viability of androgen independent and androgen dependent cells treated with Super-EBS. (A) Androgen independent AR-positive C4-2 and C4-2R were treated with Super-EBS and vehicle control for 24 h in 10% FBS. Cell viability was measured by Resazurin assay. (B) Androgen dependent AR-positive LNCaP and M49C were treated under same condition and cell viability by Resazurin assay. *P<0.05; ** P<0.01 by the Student's t test.
In particular, cell viability of the AR-positive prostate cancer cells and their drug resistant counterparts was lower for the cells treated with Super-EBS.

[6] = test system: CWR22Rv1 ENZ-resistant cells; assay: ICC for active caspase 3 (apoptosis), CWR22Rv1 ENZ-resistant; conditions: 0.1-5 μM, 24 hours
Method: as §1, §2, §3

LNCaP cells = assay: Western blot for γH2AX (Ser139), DNA double stranded breaks, LNCaP; conditions: 0.25 or 0.5 μM, 24 h
Method: as §6, §7

CwR22Rv1 Enz(R) cells = assay: Annexin V-PI staining and FACS analysis for apoptotic cells; conditions: 2 or 4 μM, 24 h
Method: CwR22Rv1 Enz(R) cells were treated with Super-EBS (2 or 4 μM) for 24 h in 10% FBS containing medium. Live cells were subjected to Annexin V-PI staining and FACS analysis for apoptotic cells. The percentage on the figure indicates the percentage of cells post treatment.
as §3

## CC(C)(C)c1ccc(/C(CCCN2CCC(OC(c3ccccc3)c3ccccc3)CC2)=N\C(=N)N)cc1 [Super-EBS]
Prostate cancer cells; ENZ-resistant as well as ENZ-sensitive prostate cancer cells
  concentration inducing apoptosis and growth inhibition: nanomolar concentrations
Prostate cancer cells; ENZ-resistant prostate cancer cell cultures
  cell death: 95-98%
Prostate cancer cells; ENZ-sensitive prostate cancer cell cultures
  cell death: 95-98%
Prostate cancer cells; parental and ENZ-resistant prostate cancer cell lines
  potency in killing cells compared with EBS: more potent than EBS
[1]
  γH2AX positivity after Par-4 knock-down: decrease in the YH2AX positivity
[2]
  apoptosis (active caspase 3 ICC) relative to vehicle control: significantly higher levels; also recorded: dose dependent increase in apoptotic cells
[3]
  cell viability (resazurin), effective concentration: effective at nanomolar concentrations
PC-3 cells; 24 hours
  cell viability (resazurin): effective
PC-3 cells; PC-3, 24, 48 and 72 hours
  cell viability (resazurin), effective concentration: effective at nanomolar concentrations
[4]
  cell viability (resazurin), effective concentration: effective at nanomolar concentrations
C4-2 cells
  DNA double stranded breaks (γH2AX Ser139): induced DSBs
[5]; 10 μM
  cytotoxic effect compared with EBS: more pronounced than EBS
[5]
  susceptibility of LNCaP and M49C versus C4-2 and C4-2R to cytotoxic action: more susceptible
[6]
  apoptosis (active caspase 3 ICC) relative to vehicle control: significantly higher levels; also recorded: dose dependent increase in apoptotic cells
LNCaP cells
  DNA double stranded breaks (γH2AX Ser139): induced DSBs
CwR22Rv1 Enz(R) cells
  cells in the early and late stages of apoptosis (Annexin V/PI FACS): dose dependent increase

## CC(C)(C)c1ccc(C(=O)CCCN2CCC(OC(c3ccccc3)c3ccccc3)CC2)cc1 [EBS, 4-[4-(Diphenylmethoxy)-1-piperidinyl]-1-[4-(2-methyl-2-propanyl)phenyl]-1-butanone, reference compound]
PC-3 cells; 72 hours
  cell viability (resazurin): sensitive
LNCaP cells
  DNA double stranded breaks (γH2AX Ser139): but not EBS induced significant amount of DSBs
